Test results taken from patent publication US8410150B2, “Inhibitors of carnitine palmitoyltransferase and treating cancer” (University Health Network, priority 2007, dated 2013).

Tests used:
COLO-205 = assay: Cell growth inhibition, SRB assay; assay type: cell-based, human; conditions: Colon COLO-205, 3% FBS
Protocol: (§1) Compounds were dissolved in DMSO and further diluted in cell culture medium for the experiments performed. Cells were seeded into 96-well plates with 1,500-5,000 cells/well according to cell growth rate. After 24 h, DMEM medium containing 10% FBS were changed to DMEM containing 3% FBS for cancer cells and additional 3% FBS were added into the culture medium for normal cells. The compound was added into the cell culture at the indicated concentrations, and the final concentration of DMSO was adjusted to a final concentration of 0.1%. Cells were subjected to either normoxic condition (20% O2) for 6 days or hypoxic condition (0.2% O2) for 2 days and then transferred to normoxic condition for 4 days. Cell viability was assessed by Sulforhodamine B (SRB) assay at Day 6.
(§2) Sulforhodamine B (SRB) (Sigma, Oakville, ON, Canada) is a water-soluble dye that binds to the basic amino acids of the cellular proteins. Thus, colorimetric measurement of the bound dye provides an estimate of the total protein mass that is related to the cell number. The cells were fixed in situ by gently aspirating off the culture media and adding 50 ul of cold 10% trichloroacetic Acid (TCA) per well and incubated at 4° C. for 30-60 min. The plates were washed five times with water and allowed to air dry for 5 min. 50 ul of 0.4% (w/v) SRB dissolved in 1% (v/v) acetic acid were added into each well, plates were then incubated at RT for 30 min for staining, washed four times with 1% acetic acid to remove any unbound dye and then allowed to air dry for 5 min. Stain was solubilized with 100 ul of 10 mM Tris pH 10.5 per well. Absorbance was read at 570 nm on a spectrophotometer. GI50 (compound concentration required for 50% of growth inhibition) was calculated using GraphPad Prism 4.0 software (GraphPad Software, Inc., San Diego, Calif., USA).
(§3) Cell viability of various cell lines treated with 3-carboxy-N,N,N-trimethyl-2-pentadecanamidopropan-1-aminium (“nPAC”) and compound of Examples S7, S63, S66, S90, S89, S67, S75 and S10 was also assessed in a manner as described above in Example 5.

Hs578T = assay: Cell growth inhibition, SRB assay; assay type: cell-based, human; conditions: Breast Hs578T, 3% FBS
Protocol: as §1, §2, §3

A54 = assay: Cell growth inhibition, SRB assay; assay type: cell-based, human; conditions: Lung A54, 3% FBS
Protocol: as §1, §2, §3

Caov-3 = assay: Cell growth inhibition, SRB assay; assay type: cell-based, human; conditions: Ovarian Caov-3, 3% FBS
Protocol: as §1, §2, §3

MDA-231 = assay: Cell growth inhibition, SRB assay; assay type: cell-based, human; conditions: Breast MDA-231, 3% FBS
Protocol: as §1, §2, §3

HCT-15 = assay: Cell growth inhibition, SRB assay; assay type: cell-based, human; conditions: Colon HCT-15, 3% FBS
Protocol: as §1, §2, §3

SW480 = assay: Cell growth inhibition, SRB assay; assay type: cell-based, human; conditions: Colon SW480, 3% FBS
Protocol: as §1, §2, §3

SW620 = assay: Cell growth inhibition, SRB assay; assay type: cell-based, human; conditions: Colon SW620, 3% FBS
Protocol: as §1, §2, §3

MCF-7 = assay: Cell growth inhibition, SRB assay; assay type: cell-based, human; conditions: Breast MCF-7, 3% FBS; read-out: GI50
Protocol: (§4) Human cancer cells (MCF-7, H358, H460, HCT116 p53^+/+, HCT116 p53^−/−, A172, PC-3, DU-145 and SW626) were maintained in DMEM medium containing 10% Fetal Bovine Serum (FBS) (Invitrogen, Burlington, ON, Canada) and normal cells HMEC, 184A1, NHBE and PrEC were cultured in MEGM, MEGM plus transferring and cholera toxin, BEGM and PrEGM supplemented with various growth factors (Cambrex, Charles city, IA, USA), respectively.
as §1, §2, §3

A172 = assay: Cell growth inhibition, SRB assay; assay type: cell-based, human; conditions: Brain A172, 3% FBS; read-out: GI50
Protocol: as §4, §1, §2, §3

H358 = assay: Cell growth inhibition, SRB assay; assay type: cell-based, human; conditions: Lung H358, 3% FBS; read-out: GI50
Protocol: as §4, §1, §2, §3

SW626 = assay: Cell growth inhibition, SRB assay; assay type: cell-based, human; conditions: Ovarian SW626, 3% FBS; read-out: GI50
Protocol: as §4, §1, §2, §3

PC-3 = assay: Cell growth inhibition, SRB assay; assay type: cell-based, human; conditions: Prostate PC-3, 3% FBS; read-out: GI50
Protocol: as §4, §1, §2, §3

human CPT1A = biological target: T1, human CPT1A (Homo sapiens, UniProt P50416); assay: Human CPT1A LC/MS assay; assay type: biochemical
T1 construct: made in house; host or cells: Saccharomyces cerevisiae (pESC-trp) or cultured mammalian cells (pCDNA3.1); mitochondrial extract
T1 sequence (P50416 1-773): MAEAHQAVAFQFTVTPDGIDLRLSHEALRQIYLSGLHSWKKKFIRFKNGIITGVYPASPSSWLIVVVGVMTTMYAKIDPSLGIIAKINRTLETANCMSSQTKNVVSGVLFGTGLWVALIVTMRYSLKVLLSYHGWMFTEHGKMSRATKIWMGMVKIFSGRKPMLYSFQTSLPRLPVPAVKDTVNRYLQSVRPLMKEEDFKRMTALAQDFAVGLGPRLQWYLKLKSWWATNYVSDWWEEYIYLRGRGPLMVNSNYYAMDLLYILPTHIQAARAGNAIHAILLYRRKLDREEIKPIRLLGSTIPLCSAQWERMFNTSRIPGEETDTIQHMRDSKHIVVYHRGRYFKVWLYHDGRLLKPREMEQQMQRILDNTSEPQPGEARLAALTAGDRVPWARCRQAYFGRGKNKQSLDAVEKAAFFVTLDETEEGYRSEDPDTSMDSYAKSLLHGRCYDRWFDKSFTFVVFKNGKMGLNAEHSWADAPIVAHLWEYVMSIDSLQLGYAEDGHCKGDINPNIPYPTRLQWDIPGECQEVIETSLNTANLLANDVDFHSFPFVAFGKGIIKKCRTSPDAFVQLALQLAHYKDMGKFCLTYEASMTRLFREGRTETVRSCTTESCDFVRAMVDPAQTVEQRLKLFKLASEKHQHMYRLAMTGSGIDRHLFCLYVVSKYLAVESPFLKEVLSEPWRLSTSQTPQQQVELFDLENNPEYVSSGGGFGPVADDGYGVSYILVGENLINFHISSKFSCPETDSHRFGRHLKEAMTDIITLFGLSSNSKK
Procedure, shortened: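 Mitochondrial extracts (1.6 μg protein) expressing human CPT1A, preincubated 10 min with compound in 20% DMSO, then reacted 10 min at room temperature with 20 μM palmitoyl-CoA, 50 μM L-carnitine (pH 7.5). Palmitoyl carnitine was quantified by LC/MS against a myristoyl carnitine standard; 16-point, 2-fold titrations gave dose response.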

Which results are given for “3-carboxy-N,N,N-trimethyl-2-pentadecanamidopropan-1-aminium [nPAC, reference compound]”?
GI50 (COLO-205): 400 nM; GI50 (Hs578T): 19000 nM; GI50 (A54): 20000 nM; GI50 (Caov-3): 1300 nM; GI50 (MDA-231): 10000 nM; GI50 (HCT-15): 1500 nM; GI50 (SW480): 400 nM; GI50 (SW620): 500 nM; GI50 (MCF-7): 6600 nM; GI50 (A172): 3200 nM; GI50 (H358): 700 nM; GI50 (SW626): 1200 nM; GI50 (PC-3): 2500 nM

For `CCCCCCOc1cccc(CCc2ccc(C(=O)N[C@H](CC(=O)O)C[N+](C)(C)C)o2)c1` [Example S125, (R)-3-carboxy-2-(5-(3-(hexyloxy)phenethyl)furan-2-carboxamido)-N,N,N-trimethylpropan-1-aminium 2,2,2-trifluoroacetate], which IC50 (human CPT1A; human CPT1A LC/MS assay, dose response format) is on record?
The IC50 was no more than 1000 nM.

`C[N+](C)(C)C[C@H](N)CC(=O)[O-]` [L-aminocarnitine, (R)-3-amino-4-(trimethylammonio)butanoate, reference compound] was tested. Which IC50 (human CPT1A; dose response assay, n=17) did it give?
Its IC50 is 7000 ± 2500 nM.
